Read-outs that look alike come from different tables or passages of the source.
Columns and labels:
[1] = tested on: BRIN-BD11 cells; assay: cAMP production in BRIN-BD11 cells (enzyme immunoassay); format: cell-based; conditions: 11.1 mM glucose, 20 min
Experimental: (§1) For intracellular Ca2+ measurement, monolayers of BRIN-BD11 cells were seeded overnight at a density of 80,000 cells per well in a 96-well black walled clear bottom plate. Cells were washed with 100 μl of Krebs buffer and incubated for 1 hour with Flex calcium assay kit reagent at 37° C. GPR84 at 10^−4 mol/L were added at 5.6 mmol/L and 16.7 mmol/L glucose. Fluorometric data were obtained using the FLEX Station scanner and test solutions were transferred using fluid transfer workstation at a wavelength of 525 nm (Molecular Devices). For cAMP determination, BRIN-BD11 cells were seeded in a 96-well plate at a density of 30,000 cells per well. Cells were washed with 300 μl Krebs buffer for 40 min and 150 μl of compositions of the present invention at 10^−10-10^−4 mol/L were tested at […] glucose. After 20 minutes, test solutions were removed and 0.1M HCL (150 μL) was added to lyse the cells. Total cAMP production in the cell supernatants were measured using cAMP enzyme immunoassay kit according to the manufacturer's protocol (Sigma, Poole, UK).

[2] = tested on: BRIN-BD11 cells; assay: Intracellular Ca2+ in BRIN-BD11 cells (Flex calcium assay kit); format: cell-based; conditions: 10^−4 mol/L, 16.7 mM glucose
Experimental: as §1

[3] = tested on: NIH Swiss mice; assay: Acute effects on plasma glucose and insulin after oral glucose load; format: in vivo; conditions: for circulating (plasma) glucose after glucose load / plasma insulin (insulin release) after glucose load: high fat fed mice, oral 50 μmol/kg with glucose 18 mmol/kg
Experimental: Adult male (20-22 week) NIH Swiss mice (Harlan UK Ltd) were individually housed in an air-conditioned room at 22±2° C. with 12 hour light: 12 hour darkness cycles. […] Non-fasted NIH Swiss mice (n=6) received an oral injection of glucose alone (18 mmol/kg body weight) or in combination with compositions of the present invention (50 μmol/kg body weight). Blood samples were obtained from the cut tip from tail vein of conscious mice and centrifuged at 13,000 rpm for 3 minutes at 4° C. Plasma glucose was measured by an automated glucose oxidase procedure using a Beckman glucose analyser and insulin determined by radioimmunoassay. All animal experiments were carried out in accordance with the UK Animal (Scientific Procedures) Act 1986.

[4] = tested on: high fat fed diabetic NIH Swiss mice; assay: Long-term daily oral administration in high fat fed diabetic mice; format: in vivo; conditions: for pancreatic insulin content: HFF model; for plasma insulin following oral glucose / plasma glucose following a glucose load: after long-term daily administration; for plasma glucose following a glucose load: glucose 18 mmol/kg; for increase in circulating GLP-1: at 30 min after oral glucose, long term study; for plasma GLP-1: at the end of the study; for insulin sensitivity: insulin 25 U/kg; for body weight: daily oral for 21 days; for non-fasting plasma insulin: after 21 days; for decrease in plasma glucose, area under the curve: over 21 days; for GLP-1 secretion: over the long term study, after oral glucose
Experimental: […] In order to confirm diabetes, an oral glucose tolerance test (OGTT) was performed. Food intake, fluid intake, body weight, non-fasted plasma glucose and insulin concentrations were monitored every 2- to 4-days as indicated in the accompanying drawings. At the end of the study, glucose tolerance (18 mmol/kg body weight) and insulin sensitivity (25 U/kg body weight) were assessed. Mice were anesthetised by isoflurane and killed by cervical dislocation. Dual energy X-ray absorption (DEXA) scanning was performed after prior calibration and quality control with the aluminium/lucite phantom (0.069 g/cm2, 12.0% fat) using a PIXImus system (software version 1.4x).

[5] = tested on: BRIN-BD11 cells; assay: Acute insulin secretion from clonal BRIN-BD11 cells (radioimmunoassay); format: cell-based; conditions: for concentrations that enhanced insulin release: tested 10^−12-10^−4 mol/L; for EC50: Rattus norvegicus, BRIN-BD11, 20 min, 20 min incubation, read-out: EC50 of enhanced insulin release
Experimental: (§2) Insulin-secreting BRIN-BD11 cells were cultured with RPMI-1640 media (11.1 mM glucose) containing antibiotics (100 U/ml penicillin and 0.1 mg/ml streptomycin) and 10% foetal calf serum at 37° C. in an atmosphere of 95% air and 5% carbon dioxide. For acute insulin secretion studies, cells were detached using trypsin/EDTA and incubated overnight in 24 well plates with 150,000 cells per well. Cells were then pre-incubated for 40 minutes at 1.1 mmol/l glucose in Krebs buffer (comprising 4.7 mmol/l KCL, 115 mmol/l NaCl, 1.28 mmol/CaCl2, 10 mmol/l NaHCO3, 5 g/l BSA, 1.2 mmol/l KH2PO4, 1.2 mmol/l MgSO47H2O pH 7.4). Test incubations were then performed at 37° C. for 20 minutes. DIM, indole-3-carbinol, embelin, [6]-gingerol, and [6]-shogaol at 10^−12-10^−4 mol/L were tested at both 5.6 mmol/L and 16.7 mmol/L glucose, as indicated in the accompanying drawings. Supernatants were removed, evaluated for lactate dehydrogenase (LDH) release as an indicator of cytotoxicity (as per manufacturer's protocol) or frozen at −20° C. until determination of insulin by radioimmunoassay.

[6] = tested on: BRIN-BD11 cells; assay: LDH release from BRIN-BD11 cells as indicator of cytotoxicity; format: cell-based
Experimental: as §2

[7] = high fat fed mice, daily administration
[8] = 5.6 mM or 16.7 mM glucose, not separated at the place

| Structure (SMILES) | cAMP production / involvement of cAMP pathway [1] | intracellular Ca2+ concentrations [2] | circulating (plasma) glucose after glucose load [3] | plasma insulin (insulin release) after glucose load [3] | pancreatic insulin content ([4]; daily administration) | plasma insulin following oral glucose ([4]; high fat fed mice) | plasma glucose following a glucose load ([4]; high fat fed mice) | increase in circulating GLP-1 ([4]; high fat fed mice) [%] | plasma GLP-1 ([4]; high fat fed mice) | total body fat (DEXA) [4, 7] | insulin sensitivity [4, 7] | body weight ([4]; high fat fed mice) | non-fasting plasma insulin ([4]; high fat fed mice, daily oral) | decrease in plasma glucose, area under the curve ([4]; high fat fed mice, daily oral) [%] | GLP-1 secretion ([4]; high fat fed mice) | concentrations that enhanced insulin release ([5]; 5.6 mM glucose) | concentrations that enhanced insulin release ([5]; 16.7 mM glucose) | EC50 ([5]; 5.6 mM basal glucose) [nM] | EC50 ([5]; 16.7 mM stimulatory glucose) [nM] | cytotoxicity (LDH release) ([6]; 5.6 mM glucose) | also measured |
| --- | --- | --- | --- | --- | --- | --- | --- | --- | --- | --- | --- | --- | --- | --- | --- | --- | --- | --- | --- | --- | --- |
| CCCCC/C=C/C(=O)CCc1ccc(O)c(OC)c1 [[6]-shogaol, (E)-1-(4-hydroxy-3-methoxyphenyl)dec-4-en-3-one] | act through the cAMP pathway | increased intracellular Ca2+ concentrations | – | – | – | – | – | – | – | – | – | – | – | – | – | – | – | – | – | – | – |
| CCCCCCCCCCCC1=C(O)C(=O)C=C(O)C1=O [Embelin, 2,5-dihydroxy-3-undecylcyclohexa-2,5-diene-1,4-dione] | involves the cAMP-dependent pathway | increased intracellular Ca2+ concentrations | decreased circulating glucose | increase in insulin release | reduced pancreatic insulin content | decreased plasma insulin | significantly decreased | 45 | raised | no change in total body fat | decreased | no effect on body weight | augmented | 17 | increased GLP-1 secretion | 10^−9-10^−4 mol/L | 10^−10-10^−4 mol/L | 730 | 210 | No cytotoxicity | low-density lipoprotein (LDL) cholesterol [4, 7]: reduced; total cholesterol [4, 7]: reduced; non-fasting plasma glucose ([4]; high fat fed mice, daily oral, after 9 days of treatment): significant decrease in plasma glucose; cytotoxicity (LDH release) ([6]; 16.7 mM glucose): No cytotoxicity |
| CCCCC[C@H](O)CC(=O)CCc1ccc(O)c(OC)c1 [[6]-gingerol, (5S)-5-hydroxy-1-(4-hydroxy-3-methoxyphenyl)decan-3-one] | – | – | – | – | – | – | – | – | – | – | – | – | – | – | – | 10^−8-10^−4 mol/L | 10^−8-10^−4 mol/L | 1900 | 2800 | – | plasma glucose after glucose load ([3]; NIH Swiss mice, diet not separated (normal chow and high fat), oral with glucose 18 mmol/kg): significant decrease; cytotoxicity (LDH release) [6, 8]: No cytotoxicity |
| c1ccc2c(Cc3c[nH]c4ccccc34)c[nH]c2c1 [Diindolylmethane, 3,3′-methanediylbis(1H-indole)] | involves the cAMP-dependent pathway | increased intracellular Ca2+ concentrations | decreased circulating glucose | increase in insulin release | reduced pancreatic insulin content | decreased plasma insulin | attenuated | 61 | raised | decreased body fat | decreased | decreased body weight after 15 days | augmented | 18 | increased GLP-1 secretion | 10^−8-10^−4 mol/L | 10^−9-10^−4 mol/L | 130 | 1000 | No cytotoxicity | energy intake ([4]; high fat fed mice, daily oral): decreased energy intake; fluid intake ([4]; high fat fed mice, daily oral): no effect on fluid intake; non-fasting plasma glucose ([4]; high fat fed mice, daily oral, at 21 days): decrease in plasma glucose; cytotoxicity (LDH release) ([6]; 16.7 mM glucose): No cytotoxicity |
| OCc1c[nH]c2ccccc12 [Indole-3-carbinol, 1H-Indol-3-ylmethanol] | – | – | significantly decreased | – | – | – | – | – | – | – | – | – | – | – | – | 10^−7-10^−4 mol/L | 10^−6-10^−4 mol/L | 1500 | 400 | – | cytotoxicity (LDH release) [6, 8]: No cytotoxicity |

Reference: patent US11541019B2, “Compositions for use in the treatment of diabetes” (University of Ulster, priority 2015, dated 2023)
